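Each compound was tested at five concentrations against cells in 96-well plates for 48 hours. Here, GI50 denotes the concentration required for 50% inhibition of growth.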 The source made the active and inactive calls. Rule as the data show it: active = GI50 up to about 1.1 µM and inactive = higher.
How the values were obtained:
Assay in all cases: NCI tumour cell line growth inhibition, 48 h
A498 = system: A498
A549 = system: A549
HCT-15 = system: HCT-15
HOP-62 = system: HOP-62
HOP-92 = system: HOP-92
HT-29 = system: HT-29
MOLT-4 = system: MOLT-4
NCI-H460 = system: NCI-H460
OVCAR-4 = system: OVCAR-4
SF-295 = system: SF-295
SK-MEL-28 = system: SK-MEL-28
SK-MEL-5 = system: SK-MEL-5
SK-OV-3 = system: SK-OV-3
SN12C = system: SN12C
SNB-19 = system: SNB-19
SR = system: SR
TK-10 = system: TK-10
UACC-62 = system: UACC-62
DU-145 = system: DU-145
MDA-N = system: MDA-N

SMILES | GI50 (A498) | GI50 (A549) | GI50 (HCT-15) [µM] | GI50 (HOP-62) | GI50 (HOP-92) | GI50 (HT-29) | GI50 (MOLT-4) | GI50 (NCI-H460) | GI50 (OVCAR-4) | GI50 (SF-295) | GI50 (SK-MEL-28) | GI50 (SK-MEL-5) | GI50 (SK-OV-3) | GI50 (SN12C) | GI50 (SNB-19) | GI50 (SR) | GI50 (TK-10) | GI50 (UACC-62) | GI50 (DU-145) | GI50 (MDA-N)
[O-][S+]1c2ccccc2N=C(c2ccc3ccccc3c2)CC1c1ccccc1 (centres undefined) | 17.4 µM (inactive) | 21.3 µM (inactive) | 16.4 | 29.3 µM (inactive) | 35.6 µM (inactive) | 17.4 µM (inactive) | 31 µM (inactive) | 19.7 µM (inactive) | 20.2 µM (inactive) | 19.9 µM (inactive) | 43 µM (inactive) | 27.7 µM (inactive) | 36.2 µM (inactive) | 34.4 µM (inactive) | 17.9 µM (inactive) | 17.9 µM (inactive) | 22.8 µM (inactive) | 36.6 µM (inactive) | – | –
COc1cc2c(/C=C3/C(=O)Nc4ccc(O)cc43)c(Cl)[nH]c2cc1C | 11.4 µM (inactive) | 0.397 µM (active) | 0.107 | 0.127 µM (active) | 15.9 µM (inactive) | 0.149 µM (active) | 0.039 µM (active) | 0.454 µM (active) | 0.562 µM (active) | 0.0984 µM (active) | 0.0149 µM (active) | 0.0822 µM (active) | 0.0627 µM (active) | 0.197 µM (active) | 0.146 µM (active) | – | 0.398 µM (active) | 0.0499 µM (active) | 0.245 µM (active) | –
CCOC(=O)C(CO)c1nc2c([nH]c1=O)c(=O)n(C)c(=O)n2C (centres undefined) | 0.608 µM (active) | > 100 µM (inactive) | > 100 | > 100 µM (inactive) | – | > 100 µM (inactive) | – | > 100 µM (inactive) | – | > 100 µM (inactive) | > 100 µM (inactive) | 0.579 µM (active) | – | > 100 µM (inactive) | > 100 µM (inactive) | > 100 µM (inactive) | > 100 µM (inactive) | > 100 µM (inactive) | > 100 µM (inactive) | –
COc1ccc(OC)c(NC(=O)C2=C(C)NC(C)=C(C(=O)Nc3cc(OC)ccc3OC)C2c2ccco2)c1 | > 100 µM (inactive) | > 100 µM (inactive) | > 100 | > 100 µM (inactive) | > 100 µM (inactive) | > 100 µM (inactive) | 27.7 µM (inactive) | > 100 µM (inactive) | – | – | – | 51.3 µM (inactive) | > 100 µM (inactive) | > 100 µM (inactive) | > 100 µM (inactive) | 64.6 µM (inactive) | > 100 µM (inactive) | > 100 µM (inactive) | – | –
O=C(c1cc2ccccc2cc1O)N1CCCCC1 | 15.2 µM (inactive) | – | 35.8 | 27.4 µM (inactive) | 11.4 µM (inactive) | 25.6 µM (inactive) | 15.3 µM (inactive) | 27.7 µM (inactive) | 37.7 µM (inactive) | 25.4 µM (inactive) | 41.8 µM (inactive) | 20 µM (inactive) | 42.2 µM (inactive) | – | 28.5 µM (inactive) | 16.7 µM (inactive) | > 100 µM (inactive) | 31.4 µM (inactive) | 64.1 µM (inactive) | –
C/C=C(\C)C(=O)N1c2ccccc2CC1c1c(C)[nH]c2ccccc12 (centres undefined) | > 100 µM (inactive) | > 100 µM (inactive) | 37 | > 100 µM (inactive) | 12.2 µM (inactive) | 38.4 µM (inactive) | 19.9 µM (inactive) | 37.9 µM (inactive) | 4.15 µM (inactive) | 40 µM (inactive) | > 100 µM (inactive) | > 10 µM (inactive) | > 100 µM (inactive) | > 100 µM (inactive) | > 100 µM (inactive) | > 100 µM (inactive) | 73.3 µM (inactive) | 40.7 µM (inactive) | – | –
C[C@]12CC[C@H](O)CC1=CC[C@@H]1C2CC[C@]2(C)C(=O)N(N)C(=O)CC12 (some centres undefined) | > 100 µM (inactive) | > 100 µM (inactive) | > 100 | > 100 µM (inactive) | > 100 µM (inactive) | > 100 µM (inactive) | > 100 µM (inactive) | > 100 µM (inactive) | > 100 µM (inactive) | > 100 µM (inactive) | > 100 µM (inactive) | > 100 µM (inactive) | > 100 µM (inactive) | > 100 µM (inactive) | > 100 µM (inactive) | > 100 µM (inactive) | > 100 µM (inactive) | > 100 µM (inactive) | – | –
CN1CCN(C)C12C=CC=CC21CC1 | > 100 µM (inactive) | > 100 µM (inactive) | > 100 | > 100 µM (inactive) | 58.9 µM (inactive) | > 100 µM (inactive) | > 100 µM (inactive) | > 100 µM (inactive) | > 100 µM (inactive) | > 100 µM (inactive) | – | > 100 µM (inactive) | > 100 µM (inactive) | > 100 µM (inactive) | > 100 µM (inactive) | > 100 µM (inactive) | > 100 µM (inactive) | > 100 µM (inactive) | – | –
COc1ccc(CCNC(=O)Cc2ccccc2CCO)cc1OC | > 100 µM (inactive) | > 100 µM (inactive) | 14.9 | > 100 µM (inactive) | > 100 µM (inactive) | > 100 µM (inactive) | > 100 µM (inactive) | > 100 µM (inactive) | 41.8 µM (inactive) | > 100 µM (inactive) | 52.7 µM (inactive) | > 100 µM (inactive) | > 100 µM (inactive) | > 100 µM (inactive) | 27.4 µM (inactive) | > 100 µM (inactive) | > 100 µM (inactive) | > 100 µM (inactive) | > 100 µM (inactive) | –
CC(C)(C)c1cc(C(=O)/C=C/c2ccc3c(c2)CCO3)cc(C(C)(C)C)c1O | 1.12 µM (active) | 1.63 µM (inactive) | 1.04 | 4.15 µM (inactive) | 16.2 µM (inactive) | 1.04 µM (active) | 2.42 µM (inactive) | 0.76 µM (active) | 0.869 µM (active) | 1.69 µM (inactive) | > 83 µM (inactive) | 0.908 µM (active) | 1.64 µM (inactive) | 2.99 µM (inactive) | 2.94 µM (inactive) | 0.548 µM (active) | 1.31 µM (inactive) | 1.16 µM (inactive) | 1.39 µM (inactive) | –
O=C1CCCNn2c(nc3ncccc3c2=O)N1 | > 100 µM (inactive) | > 100 µM (inactive) | > 100 | > 100 µM (inactive) | > 100 µM (inactive) | > 100 µM (inactive) | > 100 µM (inactive) | > 100 µM (inactive) | > 100 µM (inactive) | > 100 µM (inactive) | – | > 100 µM (inactive) | > 100 µM (inactive) | – | > 100 µM (inactive) | – | > 100 µM (inactive) | > 100 µM (inactive) | – | > 100 µM (inactive)
CN(C)c1nc(N(C)C)nc(N(C)CN(C)c2nc(N(C)C)nc(N(C)C)n2)n1 | > 100 µM (inactive) | > 100 µM (inactive) | > 100 | > 100 µM (inactive) | > 100 µM (inactive) | > 100 µM (inactive) | > 100 µM (inactive) | > 100 µM (inactive) | > 100 µM (inactive) | > 100 µM (inactive) | > 100 µM (inactive) | > 100 µM (inactive) | > 100 µM (inactive) | > 100 µM (inactive) | > 100 µM (inactive) | > 100 µM (inactive) | > 100 µM (inactive) | > 100 µM (inactive) | – | –
O=C(O)c1cccc(F)c1C(=O)c1ccc2ccccc2c1 | > 100 µM (inactive) | > 100 µM (inactive) | > 100 | > 100 µM (inactive) | > 100 µM (inactive) | > 100 µM (inactive) | – | > 100 µM (inactive) | > 100 µM (inactive) | > 100 µM (inactive) | > 100 µM (inactive) | < 0.01 µM (active) | > 100 µM (inactive) | > 100 µM (inactive) | > 100 µM (inactive) | – | > 100 µM (inactive) | > 100 µM (inactive) | – | > 100 µM (inactive)
CC1=C(N(C)C)C(=O)c2nc3n(c2C1=O)CCC3OC(N)=O (centres undefined) | 13.2 µM (inactive) | 18.8 µM (inactive) | 14.5 | 17.6 µM (inactive) | 14.8 µM (inactive) | 19.7 µM (inactive) | 13.1 µM (inactive) | 15.6 µM (inactive) | 19.9 µM (inactive) | 15.2 µM (inactive) | 20.2 µM (inactive) | 11.5 µM (inactive) | 15.2 µM (inactive) | 15.2 µM (inactive) | 17.5 µM (inactive) | 31.3 µM (inactive) | 18.2 µM (inactive) | 5.58 µM (inactive) | – | –
Cc1c2ccncc2c(C)c2c1[nH]c1ccc(Oc3ccccc3)cc12 | 5.62 µM (inactive) | 2.25 µM (inactive) | 1.44 | 1.96 µM (inactive) | 6.05 µM (inactive) | 1.79 µM (inactive) | 2.15 µM (inactive) | 1.95 µM (inactive) | 2.62 µM (inactive) | 4.63 µM (inactive) | 3.09 µM (inactive) | 2.97 µM (inactive) | 6.46 µM (inactive) | 1.81 µM (inactive) | 10.6 µM (inactive) | 2.85 µM (inactive) | 8.18 µM (inactive) | 1.74 µM (inactive) | – | –
Cc1c(O)c(=O)ccn1CCO | > 100 µM (inactive) | > 100 µM (inactive) | > 100 | > 100 µM (inactive) | > 100 µM (inactive) | > 100 µM (inactive) | > 100 µM (inactive) | > 100 µM (inactive) | > 100 µM (inactive) | > 100 µM (inactive) | > 100 µM (inactive) | > 100 µM (inactive) | > 100 µM (inactive) | > 100 µM (inactive) | > 100 µM (inactive) | > 100 µM (inactive) | > 100 µM (inactive) | > 100 µM (inactive) | – | –

Source: ChEMBL document CHEMBL1201862, “PubChem BioAssay data set” (2004)
